Results: paper PMC5344539, “Nematode neuropeptides as transgenic nematicides” (PLoS Pathogens, 2017)
“Also recorded” adds a separate entry of the source.

Key:
G. pallida J2s [1] = test: Chemosensory (chemotaxis) assay of uNLP pre-treated J2s towards tomato root exudate; type: in vivo, Globodera pallida; conditions: Fig 2A; J2s incubated in 100 μM uNLP for 24 h; tomato cv. Moneymaker root exudate vs water agar plugs; counted after 3 h; mean of 10 replicates of 100 J2s; control 0.4154
Method: (§1) Predicted uNLPs from both M. incognita and G. pallida were synthesised by EZBiolab and dissolved into pH adjusted ddH2O to make a 5 mM stock which was aliquoted and stored at -20°C. J2s of both M. incognita and G. pallida were incubated for 24 hours in 200 μl of each peptide in a 24 well plate (SPL Lifesciences, South Korea) at a defined concentration.
(§2) A 60 mm Petri dish was divided into two segments, a positive and a negative side, with a 0.5 cm 'dead zone' either side of the centre point. The petri dish was filled with 15 ml of 0.25% w/v agar which was allowed to solidify. 3 ml of 0.25% w/v agar slurry in spring water (pH 7, agitated with a magnetic stirrer for several hours to give a smooth consistency) was added to the petri dish and spread evenly over the surface. Root diffusate (attractant) and water only (control) 0.25% agar plugs were embedded in the agar slurry, either side of the assay arena. Root diffusate was collected from 10 tomato plants, aged 3–6 weeks in 1 litre pots, by pouring 500 ml of ddH20 through the soil three times. Diffusate from each plant was combined, filter sterilised and stored at 4°C for a maximum of 1 month. Root diffusate agar plugs were made by melting 1.25% agar in ddH20, cooling to 50°C before mixing with 4 parts of root diffusate. The agar was then allowed to solidify at room temperature. 100 uNLP pre-treated M. incognita or G. pallida J2s were added by pipette to the centre of the plate. J2s which moved out of the 'dead zone' after 3 hours were counted and their location (+/-) scored. The distribution of J2s were used to create a chemotaxis index for each plate, which formed one replicate, a total of 10 replicates where completed for each uNLP treatment.

G. pallida J2s [2] = test: Tomato invasion assay with uNLP pre-treated J2s; type: in vivo, Globodera pallida; conditions: Fig 2B; 500 J2s incubated in 100 μM uNLP for 24 h; single tomato seedling, 24 h at 18°C; normalised to negative control = 100%; mean
Method: as §1
(§3) Tomato seeds were sterilised with 2.5% NaOCl for 15 minutes, washed 5 times in ddH20 and germinated on 0.5% Murashige and Skoog plates at 23°C. […] Invasion assays were performed by mixing 500 pre-treated M. incognita or G. pallida J2s with agar slurry and a single tomato seedling (2 days post germination) in a 6 well plate. Assays were left at 23°C for 24 hours in the case of M. incognita and at 18°C for 24 hours in the case of G. pallida under a 16 hour light and 8 hour darkness cycle. Seedlings were stained using acid fuschin [69] and the number of nematodes within the roots counted. At least five seedlings were used for M. incognita infections assays, with at least 15 seedlings used for G. pallida infections assays (due to increased variation).

mixed-stage C. elegans = test: C. elegans chemotaxis assay (non-target); type: in vivo, Caenorhabditis elegans; conditions: worms soaked in 100 μM uNLP 24 h, counted after 1 h, 8 replicates
Method: C. elegans wild-type N2 Bristol strain were obtained from the C. elegans Genomics Center and maintained on a Escherichia coli (strain OP50) lawn on nematode growth medium (NGM) agar plates (3 g/l NaCl, 17 g/l agar, 2.5 g/l peptone, 5 mg/l cholesterol, 25 mM KH2PO4 (pH 6.0), 1 mM CaCl2, 1 mM MgSO4) at 20°C [70]. Chemotaxis assays were performed in a 9 cm diameter Petri dish on NGM agar which was split into a positive and negative side with a central ‘dead zone’ of 1.5 cm diameter. 100 mixed-staged C. elegans were washed three times in M9 buffer and soaked in 100 μM PPN uNLP, or M9 vehicle control for 24 hours. 2 μl of 50 mM sodium acetate, 0.5% pyrazine, 0.5% benzaldehyde or 0.5% diacetyl was spotted onto the positive side, 2 μl of ddH20 was spotted onto the negative side. Pyrazine, benzaldehyde and diacetyl volatile attractants were assayed immediately whereas the water soluble sodium acetate was assayed 18 hours following addition to the plate. Assays were maintained in the dark at 20°C, and counted after 1 hour. Eight replicates were conducted for each C. elegans attraction assay.

M. incognita J2s [3] = test: Tomato invasion assay with uNLP pre-treated J2s; type: in vivo, Meloidogyne incognita
Method: as §1, §3

[4] = tested on: S. carpocapsae infective juveniles (IJs); test: S. carpocapsae host-finding assay (non-target); type: in vivo, Steinernema carpocapsae; conditions: Fig 5E; chemotaxis towards insect host Galleria mellonella; 100 IJs incubated 24 h in 100 μM uNLP; n = 5; control 0.2315
Method: S. carpocapsae were cultured in Galleria mellonella at 23°C. Infective juveniles (IJs) were collected using a White trap in PBS. Freshly emerged IJs were used for each assay. 100 IJs were incubated for 24 hours in 100 μM of selected uNLPs, and host-finding assays (n = 5) performed as in Morris et al..

M. incognita J2s [5] = test: Chemosensory (chemotaxis) assay of uNLP pre-treated J2s towards tomato root exudate; type: in vivo, Meloidogyne incognita; conditions: for CI score: Fig 1A, J2s incubated in 100 μM uNLP for 24 h, tomato cv. Moneymaker root exudate vs water agar plugs, counted after 3 h, mean of 10 replicates of 100 J2s, control 0.4426
Method: as §1, §2

M. incognita J2s [6] = test: Plant protection assay, C. reinhardtii secreting uNLPs; type: in vivo, Meloidogyne incognita; conditions: Fig 4A; peptide secreted by transgenic C. reinhardtii culture in tomato invasion arena with 500 J2s; relative to untransformed C. reinhardtii = 100%; mean
Method: as §3
(§4) B. subtilis were grown overnight in LB media containing ampicillin (100 μg/ml) at 37°C with shaking, and harvested in the log phase of growth determined by measuring OD600nm. Five ml of culture at 0.5 OD was spun down and the pellet mixed with 3 ml of agar slurry and 500 J2s from either G. pallida or M. incognita. C. reinhardtii clones were grown at 23°C with shaking, cultures in the log phase were measured at OD750 and 5 ml of culture at 0.5 OD was pelleted by centrifugation. C. reinhardtii pellets were mixed with 3 ml of agar slurry and 500 J2s from either G. pallida or M. incognita. Plant invasion assays were performed as described above. […]

M. incognita J2s [7] = test: Serotonin-induced stylet thrusting assay; type: in vivo, Meloidogyne incognita; conditions: Fig 1C; J2s incubated in 100 μM uNLP for 24 h; stylet thrusts in 5 mM serotonin, counted 1 min; normalised to control = 100%; mean, at least 30 J2s
Method: as §1
Stylet thrusting assays where performed by incubating 100 M. incognita or G. pallida J2s for 15 minute in 5 mM or 2 mM serotonin (Sigma Aldrich, USA), respectively. J2s were placed on a glass slide and stylet thrusts were counted for randomly selected J2s, for 1 minute each. Counts for a given cohort of J2s were taken in a maximum interval of 15 minutes. Longer counting intervals, making for longer serotonin incubations, yielded inconsistent results. At least 30 J2s were counted for each neuropeptide treatment.

M. incognita J2s [8] = test: Plant protection assay, B. subtilis secreting uNLPs; type: in vivo, Meloidogyne incognita; conditions: Fig 4B; peptide secreted by transgenic B. subtilis culture in tomato invasion arena with 500 J2s; control = 100%; mean
Method: as §3, §4

[9] = Fig 5A, attractant sodium acetate (50 mM), control 0.4269
[10] = Fig 5B, attractant pyrazine (0.5%), control 0.4904
[11] = Fig 5C, attractant benzaldehyde (0.5%), control 0.7026
[12] = Fig 5D, attractant diacetyl (0.5%), control 0.6638

Substance	CI score (G. pallida J2s [1])	% Invasion (G. pallida J2s [2])	CI score (mixed-stage C. elegans; [9])	CI score (mixed-stage C. elegans; [10])	CI score (mixed-stage C. elegans; [11])	CI score (mixed-stage C. elegans; [12])	CI score [4]	CI score (M. incognita J2s [5])	further results
AGGRYFMRHFDDSPFAGWMA [Gp-NLP-21g, predicted unamidated NLP of G. pallida, synthesised]	-0.01357	214.80%	–	–	–	–	–	–	–
GGARAFNFFAPDE [Gp-NLP-21b, predicted unamidated NLP of G. pallida, synthesised]	-0.117	6.90%	–	–	–	–	–	–	–
GGGRYFIRPFADQ [Mi-NLP-9f, predicted unamidated NLP of M. incognita, synthesised; also secreted from transgenic C. reinhardtii]	–	–	0.5261	0.4599	0.7463	0.6	0.2462	-0.26	effect on host invasion (in words) (M. incognita J2s [3]; 100 μM uNLP, 24 h, tomato cv. Moneymaker, relative to controls): inhibited; % Invasion (M. incognita J2s [3]; Fig 1B, 500 J2s incubated in 100 μM uNLP for 24 h, single tomato seedling, 24 h at 23°C, normalised to negative control = 100%, mean): 28.22%; effect on chemosensation (in words) (M. incognita J2s [5]; 100 μM uNLP, 24 h, relative to controls): inhibit chemosensation; also recorded: inhibited; % Invasion (M. incognita J2s [6]): 10.32%
MVSWQPV [Mi-NLP-40, predicted unamidated NLP of M. incognita, synthesised; also secreted from transgenic B. subtilis]	–	–	0.482	0.5018	0.6686	0.5858	0.3057	-0.04	% Thrusting (M. incognita J2s [7]): 210%; % Invasion (M. incognita J2s [8]): 23.72%
SGIQTFRDDYDEKQAGEL [Gp-NLP-21d, predicted unamidated NLP of G. pallida, synthesised]	–	2.01%	–	–	–	–	–	–	–
